# Test results as given in patent US10239887B2, “Positive allosteric modulators of the muscarinic acetylcholine receptor M4” (Vanderbilt University, priority 2016, dated 2019).
# Legend:
# [1] = tested on: amphetamine-induced hyperlocomotion; assay: amphetamine-induced hyperlocomotion in rats; format: in vivo, male Sprague-Dawley rats; settings: for percent reversal of amphetamine-induced hyperlocomotion: rat, 1 mg/kg amphetamine s.c.
# Procedure: d-Amphetamine hemisulfate was obtained from Sigma (St. Louis, Mo.). Salt-correction was used to determine the correct amount of the d-amphetamine hemisulfate form in milligrams to add to sterile water in order to yield a […] solution, which would be dosed at 1 mL/kg body weight of each animal. […] The solutions were formulated so that animals were injected with a volume equal to 10 mL/kg body weight for all compounds. The appropriate amount according to the dosage was mixed in 10% Tween 80 (Sigma) in sterile water. The mixtures were then vortexed and stored in a 39° C. sonication bath for 1 hour, until in a microsuspension (except for the highest dose, which was a suspension).
# Male Sprague-Dawley rats weighing 239-300 grams and averaging 265 g (Harlan, Inc., Indianapolis, Ind.) were used. They were housed in the animal care facility certified by the American Association for the Accreditation of Laboratory Animal Care (AALAC) under a 12-hour light/dark cycle (lights on: 6 a.m.; lights off: 6 p.m.) and had free access to food and water. The animals used in this experiment were food-deprived the evening before experimentation for oral dosing of compound/vehicle. The experimental protocols performed during the light cycle were approved by the Institutional Animals Care and Use Committee of Vanderbilt University and conformed to the guidelines established by the National Research Council Guide for the Care and Use of Laboratory Animals.
# Male Harlan Sprague Dawley rats were habituated in Smart Open Field locomotor activity test chambers (Hamilton-Kinder, San Diego, Calif.) with 16×16 photo beams to automatically record locomotor activity. […] They were monitored for an additional 30 minutes and then injected subcutaneously with vehicle or 1 mg/kg amphetamine. Animals were then monitored for an additional 60 minutes, for a total of 120 minutes. Data were expressed as changes in ambulation defined as total number of beam breaks per 5 minute interval. Terminal brain and plasma samples were collected at the end of the study for pharmacokinetic analysis.
# Behavioral data were analyzed using a two-way ANOVA with main effects of treatment and time. Post hoc analysis was performed using a Dunnett's t-test with all treatment groups compared to the VAMP group using GraphPad Prism V.5.04 (GraphPad Software, San Diego, Calif.). Data were graphed using GraphPad Prism V.5.04 (GraphPad Software, San Diego, Calif.). A probability of p<0.05 was taken as the level of statistical significance. In addition, the total number of beam breaks from the amphetamine administration (65 min) to the end of the study (120 min) was calculated and graphed. Percent Reversal was calculated as follows using Microsoft Excel: In each animal, total ambulation from t=65 to t=120 was summed. The mean of each sum was calculated in the VAMP group. Then, for each animal, Percent Reversal was calculated with the following formula: Percent Reversal=100−{[(total ambulation in each animal from t=65 to t=120)/(mean of each sum from t=65 to t=120 in VAMP group)]*100}. The mean Percent Reversal, as well as the standard error, was calculated for each dose group using GraphPad Prism V5.04.
# P450 2D6 = P450 2D6 (Homo sapiens, UniProt P10635); assay: P450 2D6 inhibition; format: in vitro ADME
# Chain of P450 2D6 (P10635 whole entry): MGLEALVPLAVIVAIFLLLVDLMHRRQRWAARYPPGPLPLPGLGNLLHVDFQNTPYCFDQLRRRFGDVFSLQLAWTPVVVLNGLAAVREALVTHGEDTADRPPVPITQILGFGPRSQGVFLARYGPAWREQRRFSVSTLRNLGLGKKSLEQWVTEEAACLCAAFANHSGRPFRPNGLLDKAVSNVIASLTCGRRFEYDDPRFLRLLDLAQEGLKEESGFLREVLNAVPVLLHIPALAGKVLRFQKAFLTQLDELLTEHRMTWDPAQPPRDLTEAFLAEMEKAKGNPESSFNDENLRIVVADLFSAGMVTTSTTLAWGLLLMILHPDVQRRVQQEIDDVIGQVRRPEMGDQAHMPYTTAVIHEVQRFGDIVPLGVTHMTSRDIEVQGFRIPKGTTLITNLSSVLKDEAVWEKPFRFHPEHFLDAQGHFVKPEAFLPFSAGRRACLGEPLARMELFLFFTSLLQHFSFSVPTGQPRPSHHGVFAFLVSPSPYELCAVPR
# Procedure: (§1) Compound 76 was in several in vitro assays to investigate both metabolism and pharmacokinetics. These assays were performed according to known methods as generally described in the following references: Conde-Ceide et al. ACS Med. Chem. Lett. 2015, 6, 716-720; Morris et al. J. Med. Chem. 2014, 57, 10192-10197; and Bubser et al. ACS Chem. Neurosci. 2014, 5, 920-942.
# rat mAChR M4 = target: T1, rat mAChR M4 (Rattus norvegicus, UniProt P08485); assay: mAChR M4 cell-based functional assay (calcium flux), rat M4; parameters: Emax: dose or concentration left out as unconfirmed
# T1 sequence (P08485 1-478): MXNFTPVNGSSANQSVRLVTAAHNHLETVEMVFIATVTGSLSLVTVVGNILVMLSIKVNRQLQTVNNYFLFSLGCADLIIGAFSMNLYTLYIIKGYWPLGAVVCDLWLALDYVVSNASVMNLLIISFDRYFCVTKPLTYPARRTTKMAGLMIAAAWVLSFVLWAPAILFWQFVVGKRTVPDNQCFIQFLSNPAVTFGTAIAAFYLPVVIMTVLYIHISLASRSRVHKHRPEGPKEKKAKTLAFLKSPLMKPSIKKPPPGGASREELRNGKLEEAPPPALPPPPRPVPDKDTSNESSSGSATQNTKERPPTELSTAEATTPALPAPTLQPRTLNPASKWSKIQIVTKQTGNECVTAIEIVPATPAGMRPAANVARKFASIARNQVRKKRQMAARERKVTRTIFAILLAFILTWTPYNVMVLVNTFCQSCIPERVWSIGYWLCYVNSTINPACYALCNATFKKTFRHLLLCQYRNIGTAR
# P450 2C9 = P450 2C9 (Homo sapiens, UniProt P11712); assay: P450 2C9 inhibition; format: in vitro ADME
# Chain of P450 2C9 (P11712 whole entry): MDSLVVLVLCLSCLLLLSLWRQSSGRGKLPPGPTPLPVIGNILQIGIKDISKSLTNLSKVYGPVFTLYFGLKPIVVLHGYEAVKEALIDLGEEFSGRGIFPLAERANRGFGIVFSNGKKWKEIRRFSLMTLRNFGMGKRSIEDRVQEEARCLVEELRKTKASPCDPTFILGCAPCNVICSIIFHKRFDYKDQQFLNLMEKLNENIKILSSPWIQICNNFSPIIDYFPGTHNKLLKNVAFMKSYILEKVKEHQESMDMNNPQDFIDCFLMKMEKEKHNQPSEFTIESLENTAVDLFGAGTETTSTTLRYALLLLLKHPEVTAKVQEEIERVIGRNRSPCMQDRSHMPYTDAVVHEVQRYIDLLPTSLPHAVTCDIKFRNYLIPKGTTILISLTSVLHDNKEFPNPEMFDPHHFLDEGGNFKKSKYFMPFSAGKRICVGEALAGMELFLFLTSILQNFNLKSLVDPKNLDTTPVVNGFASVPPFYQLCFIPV
# Procedure: as §1
# P450 3A4 = P450 3A4 (Homo sapiens, UniProt P08684); assay: P450 3A4 inhibition; format: in vitro ADME
# Chain of P450 3A4 (P08684 whole entry): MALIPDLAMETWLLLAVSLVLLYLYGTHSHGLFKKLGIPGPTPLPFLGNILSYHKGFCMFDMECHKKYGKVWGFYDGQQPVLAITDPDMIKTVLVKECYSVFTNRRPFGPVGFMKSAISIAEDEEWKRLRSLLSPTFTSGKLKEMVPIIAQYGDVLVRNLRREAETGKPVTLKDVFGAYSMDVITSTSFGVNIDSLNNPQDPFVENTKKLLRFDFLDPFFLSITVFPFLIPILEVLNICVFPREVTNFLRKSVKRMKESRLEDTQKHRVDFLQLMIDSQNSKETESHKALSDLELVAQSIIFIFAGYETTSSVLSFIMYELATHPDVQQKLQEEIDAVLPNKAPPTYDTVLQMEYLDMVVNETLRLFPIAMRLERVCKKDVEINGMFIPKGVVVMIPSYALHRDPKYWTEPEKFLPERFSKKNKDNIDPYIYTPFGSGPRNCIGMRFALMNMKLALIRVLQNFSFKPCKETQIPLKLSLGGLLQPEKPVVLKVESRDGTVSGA
# Procedure: as §1
# [2] = intrinsic clearance, human; format: in vitro ADME
# Procedure: as §1
# intrinsic clearance, dog = format: in vitro ADME
# Procedure: as §1
compound,measurement,setting,value
"Cc1nnc2sc3c(NCc4ccc(C(C)(C)O)cc4)ncnc3c2c1C [Compound 76, 2-[4-[[(3,4-Dimethylpyrimido[4′,5′:4,5]thieno[2,3-c]pyridazin-8-yl)amino]methyl]phenyl]propan-2-ol]",percent reversal of amphetamine-induced hyperlocomotion,[1]; 0.1 mg/kg p.o.,8.1%
same,percent reversal of amphetamine-induced hyperlocomotion,[1]; 0.3 mg/kg p.o.,32.8%
same,percent reversal of amphetamine-induced hyperlocomotion,[1]; 1 mg/kg p.o.,50.7%
same,percent reversal of amphetamine-induced hyperlocomotion,[1]; 3 mg/kg p.o.,44.3%
same,percent reversal of amphetamine-induced hyperlocomotion,[1]; 10 mg/kg p.o.,62.8%
same,percent reversal of amphetamine-induced hyperlocomotion,[1]; […] p.o.,25.6%
same,reversal of amphetamine-induced hyperlocomotion (in words),"[1]; systemic administration, similar extent as VU0467154 at 10 mg/kg p.o.",significant and sustained reversal
same,IC50,P450 2D6,> 30 µM
same,Emax,rat mAChR M4,77%
same,IC50,P450 2C9,16 µM
same,IC50,P450 3A4,24 µM
same,CLint scaled,[2],15 mL/min/kg
same,CLint scaled,"intrinsic clearance, dog",35 mL/min/kg
